Here are results for three molecules from PMC8304783, “Antiadhesive Properties of Imidazolium Ionic Liquids Based on (−)-Menthol Against Candida spp” (International Journal of Molecular Sciences, 2021).

Holding throughout (format): cell-based
In one experiment the test system is C. albicans SC5314. Kind of experiment: Minimal inhibitory and fungicidal concentrations (broth microdilution, CLSI M27-A3 modified). To be noted: Candida albicans, 28 °C; for MFC: 120 h, replated on YPD agar, 5 days, read-out: Minimal fungicidal concentration (MFC); for MIC90: ≥90% growth inhibition, 48 h, YPD, read-out: Minimal inhibitory concentration (MIC90). On the procedure: (§1) Experiments were performed according to the Clinical and Laboratory Standards Institute (2008), 3rd ed. M27-A3 [51], with modifications described previously. Briefly, MICs were determined by serially diluting ILs in YPD medium in sterile 96-well plates (Sarstedt) and inoculating with fungal suspensions (final OD600 per well = 0.01). After incubation (48 h; 28 °C), the OD600 was measured (ASYS UVM 340 Biogenet). […] Each well was then replated on YPD agar and incubated for 5 days at 28 °C.

Another experiment concerns C. glabrata ATCC90030. Described as above. As to conditions: Nakaseomyces glabratus, 28 °C; for MFC: 120 h, replated on YPD agar, 5 days, read-out: Minimal fungicidal concentration (MFC); for MIC90: ≥90% growth inhibition, 48 h, YPD, read-out: Minimal inhibitory concentration (MIC90). On the procedure: as §1
For another experiment, the system named is C. krusei ATCC6258. The description is as above. To be noted: Pichia kudriavzevii, 28 °C; for MFC: 120 h, replated on YPD agar, 5 days, read-out: Minimal fungicidal concentration (MFC); for MIC90: ≥90% growth inhibition, 48 h, YPD, read-out: Minimal inhibitory concentration (MIC90). The procedure:
as §1

The next experiment relates to C. parapsilosis CBS10947. Described as above. To be noted: Lodderomyces parapsilosis, 28 °C; for MFC: 120 h, replated on YPD agar, 5 days, read-out: Minimal fungicidal concentration (MFC); for MIC90: ≥90% growth inhibition, 48 h, YPD, read-out: Minimal inhibitory concentration (MIC90). The procedure: as §1
Experiment [1] deals with C. albicans strain SC5314. Kind of experiment: Biofilm formation on dentures (crystal violet). As to conditions: for C. albicans biofilm on PFM dental crowns (CV staining) / C. albicans biofilm on acrylic dental crowns (CV staining) / C. albicans biofilm on dental alloy substructures (CV staining): 72 h biofilm, then ILs 25 µM for 2 h; for Visual eradication of C. albicans biofilm formed on dentures: dentures of different materials taken together, ILs 25 µM, 2 h. The text has this: We evaluated the ability of ILs to eradicate C. albicans biofilm formation on a number of dentures, namely acrylic dental crowns, PFM dental crowns and dental alloy substructures (Figure 2). This approach has the following disadvantage: impossibility of reliable biofilm quantification. However, during in vivo Candida spp. infections and biofilm formation, the fungi attach themselves into porous structure of dentures, and thus we selected them for the studies over commonly used discs. Here, an IL concentration of 25 µM was selected for this investigation. In each condition, a C. albicans biofilm was formed after 72 h incubation, and the collected biomass was microscopically evaluated for the presence of hyphae, pseudohyphae and blastoconidia characteristic of C. albicans (Figure 2). Next, the materials were treated with ILs for 2 h and stained with crystal violet (CV). […] Microscopic observations of the stained biomass from dentures exposed to both 1a and 1b (Figure 2, white arrows) confirmed the presence of C. albicans hyphae and blastoconidia (data not shown).
(§2) To assess the influence of ILs on biofilm formation by C. albicans strain SC5314 on dentures, the following materials were used: acrylic dental crowns, porcelain-fused-to-metal (PFMs) dental crowns and dental alloy substructures. All dentures were kind gifts from Prof. M. Łukaszewicz (Wrocław, Poland). Prior to the experiments, the dentures were sterilized by 1 h incubation in 70% pure ethanol (EtOH) solution, washed with sterile water to remove EtOH residues and dried under aseptic conditions. The experiments were performed by aseptically placing dentures in YPD, supplemented with FBS, and inoculating them with YPD-grown C. albicans suspension (0.01% Vol/Vol). After 72 h of incubation at 37 °C, the dentures were treated for 2 h with the addition of ILs (conc. = 25 µM), washed with PBS and fixed with 0.1% CV solution for 10 min, then washed with PBS to remove the stain residue. The dentures were then dried and photographed. Microscopic preparations were made of biofilm samples which were imaged using the Zeiss Axio Imager A2 microscope equipped with Zeiss Axiocam 503 mono microscope camera.

The test system of experiment [2] is C. albicans B4 and Gu5 isolates. Put plainly: Biofilm of clinical isolates on acrylic dental crowns (crystal violet). To be noted: B4 and Gu5 (FLC-resistant); 72 h biofilm, then ILs 25 μM for 2 h. On the procedure:
as §2
Figure S1. Detachment of adherent C. albicans clinical isolates after 2 h incubation on polystyrene surfaces by ionic liquids (ILs) (means ± SD; n = 3). Results are presented as percentage of adherent cells relative to untreated controls (100% adhesion). Statistical analysis of detachment at each concentration was performed towards corresponding control experiments (isolates untreated by ILs=100% adhesion) (*, p < 0.05; **, p < 0.01 […]
We selected C. albicans B4 and Gu5 isolates for evaluating the ability of ILs to eradicate biofilm formation on acrylic dental crowns (Figure S2). Both the strains were chosen due to their FLC‐resistance status. An IL concentration of 25 μM was selected for this investigation. In each condition, a C. albicans biofilm was formed after 72 h incubation, and the collected biomass was microscopically evaluated for the presence of hyphae, pseudohyphae and blastoconidia characteristic of C. albicans (Figure S2). […]

Structures are written as SMILES.

`CCCCCCCCCCn1cc[n+](CO[C@@H]2C[C@H](C)CC[C@H]2C(C)C)c1` [1b, 3-decyl-1-[(1R,2S,5R)-(−)-menthoxymethyl]imidazolium chloride]: in the experiment with C. albicans SC5314, the MFC was 50 µM and the MIC90 came to 25 µM. Besides, in the experiment on C. glabrata ATCC90030, the MFC came out at 25 µM and the MIC90 was determined as 25 µM. Further, in the experiment on C. krusei ATCC6258, the MFC was 25 µM and the MIC90 stood at 25 µM. In the experiment on C. parapsilosis CBS10947, the MFC was 25 µM and the MIC90 worked out at 25 µM. In experiment [1], the “C. albicans biofilm on PFM dental crowns (CV staining)” value is “residual CV staining was observed”, the “C. albicans biofilm on acrylic dental crowns (CV staining)” value is “residual CV staining was observed”, the “C. albicans biofilm on dental alloy substructures (CV staining)” value is recorded as “residual CV staining was observed” and the “Visual eradication of C. albicans biofilm formed on dentures” value (shortened to “Visual eradication”) is on record as “partially”. Besides, the “Biofilm of clinical isolates on acrylic dental crowns (CV staining)” value (“Biofilm of clinical isolates” below) in experiment [2] is recorded as “residual CV staining”.
Take `CCCCCCCCCOCn1cc[n+](CO[C@@H]2C[C@H](C)CC[C@H]2C(C)C)c1` [2a, 1-(1R,2S,5R)-(−)-menthoxymethyl-3-nonyloxymethylimidazolium chloride]: in the experiment on C. albicans SC5314, the MFC was determined as 25 µM and the MIC90 turned out to be 12.5 µM. In the experiment with C. glabrata ATCC90030, the MFC was 12.5 µM and the MIC90 turned out to be 12.5 µM. Moreover, in the experiment on C. krusei ATCC6258, the MFC stood at 12.5 µM and the MIC90 is 6.25 µM. Besides, in the experiment on C. parapsilosis CBS10947, the MFC turned out to be 25 µM and the MIC90 was determined as 12.5 µM. Also, in experiment [1], the “C. albicans biofilm on PFM dental crowns (CV staining)” value is “did not fully protect”, the “C. albicans biofilm on acrylic dental crowns (CV staining)” value was “protected”, the “C. albicans biofilm on dental alloy substructures (CV staining)” value is recorded as “protected” and the “Visual eradication” value is given as “totally”. Besides, the “Biofilm of clinical isolates” value in experiment [2] is “prote ct ed”.
Take `CCCCCCCCCn1cc[n+](CO[C@@H]2C[C@H](C)CC[C@H]2C(C)C)c1` [1a, 1-[(1R,2S,5R)-(−)-menthoxymethyl]-3-nonylimidazolium chloride]: in the experiment with C. albicans SC5314, the MFC came out at 50 µM and the MIC90 stood at 12.5 µM. For the same molecule, in the experiment on C. glabrata ATCC90030, the MFC was found to be 25 µM and the MIC90 was found to be 12.5 µM. Besides, in the experiment with C. krusei ATCC6258, the MFC came to 25 µM and the MIC90 came to 6.25 µM. Moreover, in the experiment on C. parapsilosis CBS10947, the MFC amounted to 50 µM and the MIC90 was 12.5 µM. In experiment [1], the “C. albicans biofilm on PFM dental crowns (CV staining)” value is “residual CV staining was observed”, the “C. albicans biofilm on acrylic dental crowns (CV staining)” value was “residual CV staining was observed”, the “C. albicans biofilm on dental alloy substructures (CV staining)” value is “residual CV staining was observed” and the “Visual eradication” value is reported as “partially”. The “Biofilm of clinical isolates” value in experiment [2] is given as “residual CV staining”.
